According to patent US20100215653A1, “METHODS OF TREATING NEOPLASTIC, AUTOIMMUNE AND INFLAMMATORY DISEASES” (Seattle Genetics, Inc., priority 2006, published 2010):
Each block holds one compound with its values, some of them ahead of it.

Experiments:
HEL 92.1.7 cells = test: Complement-dependent cytotoxicity (CDC) activity; format: cell-based, human; details: HEL 92.1.7 cells preincubated 2 hours with drug before HuM195
Description: The purpose of this study was to determine whether the cytotoxic effects of an anti-CD33 antibody (HuM195) on AML cells could be enhanced by combination treatment with chemotherapeutic drugs. An MDR^+, CD33-positive AML cell line (HEL 92.1.7) was either untreated or preincubated with the indicated concentrations of thalidomide or 5-azacytidine for two hours prior to exposure to the anti-CD33 Ab. Cytotoxic activity was measured using a complement-dependent cytotoxicity (CDC) activity.

HL-60 cells = test: HL-60 disseminated AML model in mice; format: in vivo; details: low doses of cytarabine alone (FIG. 22)
Description: Mice were implanted with an AML cell line, HL-60, as follows: 5 million HL-60 cells were injected intravenously. The mice were treated with lintuzumab (10 mg/kg, q4dx4, ip), cytarabine (1 mg/kg, 5 mg/kg or 25 mg/kg, q1dx10, ip; or 50 mg/kg or 100 mg/kg, q2dx5, ip) or lintuzumab with cytarabine (dosed as described previously). Treatment began on day one. Referring to FIG. 22, the control mice or mice treated with placebo (0.9% saline) were removed from the study by day 80, due to tumor progression.
To confirm the data of the in vitro study, mice were implanted with an AML cell line, HL-60, as follows: 5 million HL-60 cells were injected intravenously. […] Treatment began on day one. Referring to FIG. 24, the control mice were removed from the study by about day 60 due to tumor progression. Mice treated with lenalidomide were removed from study by about day 90 for similar reasons.
The MDR-negative HL60 cell line and the MDR-positive HEL9217 and TF1-α cell lines were used. […] Disease symptoms typically developed between about 35 and about 80 days, and included hind limb paralysis, scruffy coat, weight loss, palpable tumors, and/or tumor masses in bone, peritoneal cavity, or soft tissues. Human CD33+ tumor cells were detected in the blood, bone marrow, and lymph nodes of the majority of the mice by flow cytometry (FIG. 25). Solid tumors associated with bone or soft tissues were found in 20 to 60% of the mice.

[1] = tested on: AML tumor cells (KG-1 HEL9217, and TF1α); test: ADCC, 51Cr release assay with NK effector cells; format: cell-based, human; details: NK cells pre-treated 2 to 3 h with drug before addition to target cells (FIG. 23)
Description: Target AML tumor cells (KG-1 HEL9217, and TF1α) were labeled with Na^51CrO4 and mixed with enriched CD16^+ effector (NK) cells, prepared using PBMCs from normal donors. The effector to target cell ratio was 10:1. […] Macrophages were labeled with CD11b−FITC or CD14-FITC antibody. Flow cytometric analyses of dual labeled (PKH67+CD11b+ or PKH67+CD14+) cells was used to determine specific uptake (phagocytosis). […] Media were collected 18 h later and analyzed by ELISA for IL-8 or MCP-1.
Viable NK cells were pre-treated for 2 to 3 h with lenalidomide or thalidomide (as described in FIG. 23) prior to addition to target cells.

[2] = biological target: CD33 on human cells (AML cell lines HL60, KG-1, HEL9217, TF1-alpha, U937; primary human monocytes and macrophages) (human) (UniProt P20138); test: apparent Kd, saturation binding by flow cytometry on HL60 cells
CD33 on human cells (AML cell lines HL60, KG-1, HEL9217, TF1-alpha, U937; primary human monocytes and macrophages) (human), sequence (P20138 18-364): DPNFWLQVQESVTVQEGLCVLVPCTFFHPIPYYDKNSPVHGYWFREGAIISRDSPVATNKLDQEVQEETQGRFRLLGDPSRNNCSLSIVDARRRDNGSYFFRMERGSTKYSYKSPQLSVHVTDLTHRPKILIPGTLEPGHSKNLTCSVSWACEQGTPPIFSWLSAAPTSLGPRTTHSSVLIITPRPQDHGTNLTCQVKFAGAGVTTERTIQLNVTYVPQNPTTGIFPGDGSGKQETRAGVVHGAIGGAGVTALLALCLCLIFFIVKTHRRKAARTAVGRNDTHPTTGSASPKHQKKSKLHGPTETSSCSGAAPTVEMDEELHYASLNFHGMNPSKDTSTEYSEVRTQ

[3] = biological target: CD33 on human cells (AML cell lines HL60, KG-1, HEL9217, TF1-alpha, U937; primary human monocytes and macrophages) (human) (UniProt P20138); test: apparent Kd, saturation binding by flow cytometry on KG-1 cells
[4] = biological target: CD33 on human cells (AML cell lines HL60, KG-1, HEL9217, TF1-alpha, U937; primary human monocytes and macrophages) (human) (UniProt P20138); test: apparent Kd, saturation binding by flow cytometry on HEL9217 cells
[5] = biological target: CD33 on human cells (AML cell lines HL60, KG-1, HEL9217, TF1-alpha, U937; primary human monocytes and macrophages) (human) (UniProt P20138); test: apparent Kd, saturation binding by flow cytometry on TF1-alpha cells
[6] = tested on: primary human macrophages; test: Macrophage migration in response to chemoattractants (CytoSelect Cell Migration Assay); format: cell-based; details: 10% human serum or 20% conditioned media from RPMI 8226 cells; p<0.05 (FIG. 21)
Description: (§1) The migration of macrophages in response to challenge with plating media containing 10% human serum, 20% conditioned tumor cell media, or 50 ng/ml TGF-β, VEGF, TNF-α, or IFN-γ was evaluated using the CytoSelect Cell Migration Assay (Cell Biolabs, San Diego, Calif.). […] The study was stopped 18 hours later and migration was evaluated after dissociation of the cells from the membrane followed by detection with Cyquant GR dye.
as §1, with “serum or” for “serum,”, “media” for “media, or 50 ng/ml TGF-β, VEGF, TNF-α, or IFN-γ”, “studies were” for “study was”, “h” for “hours”

[7] = Effector function (ADCC or CDC activity), data not shown; format: cell-based
CD33 [8] = biological target: T1, CD33 (Homo sapiens, UniProt P20138); test: CD33 tyrosine phosphorylation (CD33 immunoprecipitation, anti-phosphotyrosine Western blot); format: cell-based; set-up: endogenous in cells; host or cells: HL-60, U937; primary human CD14+ monocytes and PBMC-derived macrophages; details: HL-60 AML cells (FIG. 16)
T1 sequence (P20138 18-364): as above
Description: CD33-positive cell lines were treated with anti-CD33 antibodies (lintuzumab and certain commercially available antibodies). Cell extracts were prepared and CD33 was immunoprecipitated using an anti-CD33 antibody (MY9 clone; Beckman Coulter, Calif.). Western blotting was performed with an anti-phosphotyrosine antibody (4G10; Upstate Biotechnologies, Inc., Lake Placid, N.Y.).
(§2) Deglycosylation was confirmed by CE-SDS. […] Cell lysates were prepared and CD33 immunoprecipitated using an anti-CD33 rabbit polyclonal antibody (Santa Cruz Biotechnology, Santa Cruz, Calif.) prior to SDS PAGE gel electrophoresis. Western blot analyses of these samples were performed using the 4G10 phosphotyrosine antibody (Upstate Biotechnology, Temucula, Calif.), anti-CD33 antibody (NovoCastra, Norwell, Mass.), and anti-SHP-1 antibody (Calbiochem, San Diego, Calif.). Control lysate for SHP-1 was prepared from a B cell lymphoma cell line.

CD33 [9] = biological target: T1, CD33; test: Recruitment of SHP-1 / SHP-2 / Syk to CD33 (CD33 immunoprecipitation, Western blot); format: cell-based; set-up: endogenous in cells; host or cells: HL-60, U937; primary human CD14+ monocytes and PBMC-derived macrophages; details: HL-60 and monocytes; 30 minutes (FIG. 16)
Description: To determine whether the humanized M195 antibody also recruits SHP phosphatases, HL-60 cells were treated with soluble or cross-linked anti-CD33 antibodies. Cell extracts were prepared and CD33 was immunoprecipitated with an anti-CD33 antibody (MY9 clone). Western blotting was performed with an anti-SHP-1 antibody (sc-287; Santa Cruz Biotechnology, Inc., Santa Cruz, Calif.).
as §2, with “To prepare deglycosylated SGN-33, the antibody was treated with PN-glycosidase F (New England BioLabs, Ipswich, Mass.). Deglycosylation” for “Deglycosylation”

Compound: Nc1ncn([C@@H]2O[C@H](CO)[C@@H](O)[C@H]2O)c(=O)n1 [5-azacytidine]
sensitivity to HuM195-mediated CDC activity after preincubation with drug (HEL 92.1.7 cells): enhanced the sensitivity

Compound: Nc1ccn([C@@H]2O[C@H](CO)[C@@H](O)[C@@H]2O)c(=O)n1 [cytarabine, reference compound]
percent survival rates compared to untreated controls (HL-60 cells): increasing percent survival rates

Compound: Nc1cccc2c1CN(C1CCC(=O)NC1=O)C2=O (stereo not shown) [lenalidomide, reference compound]
effect on SGN-33 mediated ADCC [1]: enhanced SGN-33 mediated ADCC

Compound: O=C1CCC(N2C(=O)c3ccccc3C2=O)C(=O)N1 (stereo not shown) [thalidomide, reference compound]
sensitivity to HuM195-mediated CDC activity after preincubation with drug (HEL 92.1.7 cells): enhanced the sensitivity | effect on SGN-33 mediated ADCC [1]: enhanced SGN-33 mediated ADCC

Kd [2]: 0.123 nM | Kd [3]: 0.07 nM | Kd [4]: 0.144 nM | Kd [5]: 0.099 nM
Compound: SGN-33, humanized M195 anti-CD33 antibody

phosphorylation of CD33 (CD33 [8]): induced phosphorylation of CD33
Compound: deglycosylated SGN-33: SGN-33 treated with PN-glycosidase F; does not interact with Fc receptors
macrophage migration [6]: significantly reduced the migration | effector function, including ADCC or CDC activity [7]: did not mediate effector function | recruitment of SHP-1 to the CD33 complex (CD33 [9]): resulted in recruitment of SHP-1 to the CD33 complex
